Measured values published in patent US6451785B1, “Beta lactams as antiproliferative agents” (SmithKline Beecham Corporation, priority 1997, dated 2002).

Tests used:
CoA-IT [1] = assay: CoA-IT activity assay in U937 cell microsomes; assay type: biochemical
Description: The following is a method to measure CoA-IT activity and the effects of compounds on CoA-IT activity. The assay is based upon mixing cellular material containing CoA-IT activity with a stable lyso phospholipid such as […] and measuring the production of phospholipid product such as […] occurring in the absence of added CoA or CoA-fatty acids.
Any inflammatory cell that contains high levels of CoA-IT activity can be used, such as neutrophils, macrophages or cell lines such as U937 cells. U937 cells were obtained from American Type Culture Collection and grown in RPMI-1640 media (Gibco, Grand Island, N.Y.) supplemented with 10% fetal bovine serum (Hyclone, Logan, UT) at 37° C., 5% CO2. Cells were grown without differentiation (basal state) by any agent, such as dimethyl sulfoxide. As used herein, “inflammatory cells” include, but are not limited to neutrophils, macrophages, monocytes, lymphocytes, eosinophils, basophils, and mast cells.
Microsomes were prepared using standard techniques. In this case, cells were washed with a buffer of 250 mM sucrose, 10 mM Tris, 1 mM EGTA, 1 mM MgCl2, pH 7.4 and ruptured by N2 cavitation (750 psi, 10 minutes). The ruptured cells were centrifuged 1000×g, 5 minutes. The resulting supernatant was centrifuged at 20,000×g,˜20 minutes. Microsomes were prepared from this supernatant by centrifugation at 100,000×g, 60 minutes. The resulting pellet was washed once with assay buffer (150 mM NaCl, 10 mM Na2KPO4, 1 mM EGTA, pH 7.4), recentrifuged and the pellet resuspended in assay buffer (4-20 mg protein/ml) and was stored at −80° C. until assayed.
CoA-II activity was measured in 1.5 ml centrifuge tubes in a total volume of 100 ul. Microsomes were diluted in assay buffer to the desired protein concentration (6-20 ug/tube). The reaction was initiated by addition of [3H]1-alkyl-2-lyso-sn-glycero-3-phosphocholine (GPC) (˜0.1 uCi/tube) and 1 μM final cold 1-alkyl-2-lyso-GPC in assay buffer with 0.25 mg/ml fatty acid-poor bovine serum albumin (BSA) (Calbiochem, La Jolla, Calif.). [3H]1-alkyl-2-lyso-GPC, approximately 50 Ci/mmol, was from NEN-Dupont (Boston, Mass.) and cold 1-alkyl-2-lyso-GPC was from Biomol (Plymouth Meeting, Pa.). Microsomes were pretreated with desired agents for the desired time (10 minutes) before the addition of [3H]1-alkyl-2-lyso-GPC. The reaction was run for the desired tlime (10 minutes) at 37° C. The reaction was stopped and the lipids extracted by addition of 100 ul of chloroform:methanol (1:2, v/v) followed by 100 ul of chloroform and 100 ul of 1 M KCI. The samples were vortexed and centrifuged at high speed in a microfuge for 2-3 minutes. An aliquot of the chloroform-extracted materials were separated, usually by TLC in chloroform/methanol/acetic acid/water (50:25:8:4, v/v), visualized by radioscanning (Bioscan) and the product, [3H]1-alkyl-2-acyl-GPC, was scraped and quantified by liquid scintillation spectroscopy. […] Other methods can be used to separate substrate from product, including but not limited to column chromatography, affinity chromatography and post reaction derivitization.
Protein concentration were assessed using the protein assay reagents from Bio Rad (Richmond, Calif.).

CoA-IT [2] = settings: literature, background; cited from earlier work
neoplastic cell lines = settings: literature, background; several neoplastic cell lines; cited from earlier work

## O=S1(=O)CCn2c1nc(-c1ccc(F)cc1)c2-c1ccncc1 [6-(4′-Fluorophenyl)-5-(4-pyridyl)2,3-dihydroimidzo-[2,1-b]thiazole-dioxide]
CoA-IT [1]; at concentrations up to 100 μM
  effect on CoA-IT activity: no effect

## Fc1ccc(-c2nc3n(c2-c2ccncc2)CCS3)cc1 [6-(4′-Fluorophenyl)-5-(4-pyridyl)-2,3-dihydroimidzo-[2,1-b]thiazole]
CoA-IT [1]; at concentrations up to 100 μM
  effect on CoA-IT activity: no effect

## Cc1cc(C(C)(C)C)c(O)c(C(C)(C)C)c1 [BHT]
CoA-IT [1]; at concentrations up to 100 μM
  effect on CoA-IT activity: no effect

## CN(C)CCC=C1c2ccccc2COc2ccccc21 [Doxepine]
CoA-IT [1]; at concentrations up to 100 μM
  effect on CoA-IT activity: did not inhibit

## CCCCCCCCCCCCCCCCCCOCC(COP(=O)([O-])OCC[N+](C)(C)C)OC (stereo not drawn) [ET-18-0-CH3, 1-0-octadecyl-2-0-methyl-phosphocholine]
CoA-IT [2]
  inhibition of CoA-IT: potent inhibitor
Neoplastic cell lines
  antiproliferative / apoptosis effect: attenuate cell proliferation and induce apoptosis

## COC(=O)CCCO[C@@H]1NC(=O)[C@H]1NC(c1ccccc1)(c1ccccc1)c1ccccc1 [Example 17, (3S,4S)-4-[3-(Methoxycarbonyl)propoxy]-3-(triphenylmethylamino)azetidin-2-one]
CoA-IT [1]; increased uM or longer pretreatment time
  activity in microsomal CoA-IT assay under other conditions: active at either increased uM or longer pretreatment time

## O=C(Nc1ccc(Cl)c(C(F)(F)F)c1)Nc1cc(C(F)(F)F)ccc1Oc1cc(Cl)c(Cl)cc1S(=O)(=O)O [SK&F 45905, 2-[2-[3-(4-Chloro-3-trifluoromethylphneyl)ureido]-4-tifluromethylphenoxy]-4,5-dichlorobenzene sulfonic acid]
CoA-IT [2]
  inhibition of CoA-IT: capable of inhibiting CoA-IT
Neoplastic cell lines
  antiproliferative / apoptosis effect: possess antiproliferative properties

## CCOP(=O)(CCCCCCCn1c(-c2ccccc2)c(-c2ccccc2)n(-c2ccccc2)c1=O)OCC [SK&F 98625, Diethyl 7-(3,4,5-triphenyl-2-oxo-2,3-dihydroimidazol-1yl)heptane phosphonate]
CoA-IT [2]
  inhibition of CoA-IT: capable of inhibiting CoA-IT
Neoplastic cell lines
  antiproliferative / apoptosis effect: possess antiproliferative properties

## COc1cccc2c1cc([N+](=O)[O-])c1c(C(=O)O)cc3c(c12)OCO3 [aristolochic acid]
CoA-IT [1]; at concentrations up to 500 μM
  effect on CoA-IT activity: no effect

## COc1ccc2c(c1)c(CC(=O)O)c(C)n2C(=O)c1ccc(Cl)cc1 [indomethicin]
CoA-IT [1]; at concentrations up to 100 μM
  effect on CoA-IT activity: no effect

## COc1ccc2cc([C@H](C)C(=O)O)ccc2c1 [naproxen]
CoA-IT [1]; at concentrations up to 100 μM
  effect on CoA-IT activity: no effect

## CCN(CC)CCCC(C)Nc1c2ccc(Cl)cc2nc2ccc(OC)cc12 (stereo not drawn) [quinacrine]
CoA-IT [1]; at concentrations up to 500 μM
  effect on CoA-IT activity: no effect
